We go through 17 molecules from ChEMBL document CHEMBL1909046, “DrugMatrix in vitro pharmacology data”.

Data set [1] deals with T1, 5-hydroxytryptamine receptor 2C (Homo sapiens, UniProt P28335).
T1 sequence (P28335 whole entry): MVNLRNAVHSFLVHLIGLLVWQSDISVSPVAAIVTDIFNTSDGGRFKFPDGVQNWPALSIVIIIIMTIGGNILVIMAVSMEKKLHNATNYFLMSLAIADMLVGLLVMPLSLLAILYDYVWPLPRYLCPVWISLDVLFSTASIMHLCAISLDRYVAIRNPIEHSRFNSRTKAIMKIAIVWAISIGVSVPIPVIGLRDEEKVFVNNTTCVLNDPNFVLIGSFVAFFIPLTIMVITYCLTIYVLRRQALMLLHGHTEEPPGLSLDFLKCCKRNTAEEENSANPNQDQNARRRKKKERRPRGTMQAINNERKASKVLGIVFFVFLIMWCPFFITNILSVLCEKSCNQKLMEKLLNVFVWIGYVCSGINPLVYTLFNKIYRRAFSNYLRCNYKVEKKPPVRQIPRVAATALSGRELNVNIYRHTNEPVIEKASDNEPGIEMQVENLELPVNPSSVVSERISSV
The data set can be described thus: DRUGMATRIX: Serotonin (5-Hydroxytryptamine) 5-HT2C radioligand binding (ligand: [3H] Mesulergine). The format is cell membranes, CHO-K1, Membrane. The conditions noted are these: Not Active = under 50% inhibition at 10 µM.

Data set [2] deals with Sodium-dependent dopamine transporter (Homo sapiens, UniProt Q01959). Put plainly: DRUGMATRIX: Dopamine Transporter radioligand binding (ligand: [125I] RTI-55). The note with it: Not Active = under 50% inhibition at 10 µM; for Ki: read-out: Ki. The format is cell membranes, CHO-K1, Membrane.
Chain of Sodium-dependent dopamine transporter (Q01959 whole entry): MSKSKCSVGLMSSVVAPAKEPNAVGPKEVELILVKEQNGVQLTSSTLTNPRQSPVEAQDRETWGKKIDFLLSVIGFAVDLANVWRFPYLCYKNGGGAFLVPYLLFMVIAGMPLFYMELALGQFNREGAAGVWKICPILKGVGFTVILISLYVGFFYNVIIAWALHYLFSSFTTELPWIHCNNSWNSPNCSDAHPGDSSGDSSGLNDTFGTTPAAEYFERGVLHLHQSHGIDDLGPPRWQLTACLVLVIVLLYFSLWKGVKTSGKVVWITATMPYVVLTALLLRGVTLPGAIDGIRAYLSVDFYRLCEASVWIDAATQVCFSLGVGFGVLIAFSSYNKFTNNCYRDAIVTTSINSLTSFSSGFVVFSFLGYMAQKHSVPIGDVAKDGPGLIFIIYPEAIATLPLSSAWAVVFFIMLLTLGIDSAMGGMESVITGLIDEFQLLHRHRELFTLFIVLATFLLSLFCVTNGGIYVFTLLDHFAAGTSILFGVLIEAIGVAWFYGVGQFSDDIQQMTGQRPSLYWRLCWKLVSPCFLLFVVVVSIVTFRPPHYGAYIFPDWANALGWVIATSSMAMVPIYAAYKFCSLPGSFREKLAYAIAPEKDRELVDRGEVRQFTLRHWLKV
For another data set, the target named is T2, Endothelin-1 receptor (Homo sapiens, UniProt P25101). Further: in other assays of this panel Not Active means under 50% inhibition at 10 µM.
T2 sequence (P25101 whole entry): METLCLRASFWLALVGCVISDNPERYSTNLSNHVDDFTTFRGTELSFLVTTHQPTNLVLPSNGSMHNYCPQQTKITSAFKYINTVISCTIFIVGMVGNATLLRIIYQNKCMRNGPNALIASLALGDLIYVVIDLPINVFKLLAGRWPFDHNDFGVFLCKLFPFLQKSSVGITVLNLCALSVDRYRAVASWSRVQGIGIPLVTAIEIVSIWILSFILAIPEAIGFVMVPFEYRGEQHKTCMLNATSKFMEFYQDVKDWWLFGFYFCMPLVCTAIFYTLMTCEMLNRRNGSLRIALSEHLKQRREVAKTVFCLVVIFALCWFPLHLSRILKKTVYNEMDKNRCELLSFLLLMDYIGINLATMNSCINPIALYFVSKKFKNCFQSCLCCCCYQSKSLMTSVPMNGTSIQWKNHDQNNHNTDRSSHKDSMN
Type of data set: cell membranes, CHO-K1, Membrane. The note with it: cho-k1.

The target of data set [3] is T3, Polyunsaturated fatty acid lipoxygenase ALOX15 (Oryctolagus cuniculus, UniProt P12530).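 Further: inhibition of 15-lipoxygenase enzyme activity measured with linoleic acid as the substrate; in other assays of this panel Not Active means under 50% inhibition at 10 µM.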
T3 sequence (P12530 whole entry): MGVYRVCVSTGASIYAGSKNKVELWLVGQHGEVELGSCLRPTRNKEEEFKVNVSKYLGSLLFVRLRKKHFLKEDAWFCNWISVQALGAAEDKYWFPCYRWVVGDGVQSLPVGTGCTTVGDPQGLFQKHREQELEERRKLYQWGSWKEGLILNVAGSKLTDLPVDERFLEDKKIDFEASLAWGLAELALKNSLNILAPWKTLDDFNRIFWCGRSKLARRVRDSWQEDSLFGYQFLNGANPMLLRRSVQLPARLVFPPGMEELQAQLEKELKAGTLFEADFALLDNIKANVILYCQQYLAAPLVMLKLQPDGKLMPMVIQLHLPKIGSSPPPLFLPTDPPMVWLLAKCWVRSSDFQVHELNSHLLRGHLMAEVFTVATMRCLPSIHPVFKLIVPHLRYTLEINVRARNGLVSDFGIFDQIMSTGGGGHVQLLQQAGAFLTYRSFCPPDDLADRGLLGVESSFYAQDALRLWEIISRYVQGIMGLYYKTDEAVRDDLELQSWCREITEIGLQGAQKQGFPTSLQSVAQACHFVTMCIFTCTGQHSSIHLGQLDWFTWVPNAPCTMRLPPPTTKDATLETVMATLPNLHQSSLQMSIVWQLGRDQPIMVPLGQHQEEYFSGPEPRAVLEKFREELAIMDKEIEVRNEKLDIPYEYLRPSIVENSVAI
Put plainly: biochemical. Type of data set: tissue-based, Reticulocytes.

The target in data set [4] is Protein phosphatase 3 catalytic subunit alpha (Homo sapiens, UniProt Q08209). Details: species or system Escherichia coli.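 Further: inhibition of calcineurin (PP2B) enzyme activity, measured with DiFMUP as the substrate; in other assays of this panel Not Active means under 50% inhibition at 10 µM.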
The target in data set [5] is cGMP-specific 3',5'-cyclic phosphodiesterase (Homo sapiens, UniProt O76074). The data set can be described thus: DRUGMATRIX: Phosphodiesterase PDE5 enzyme inhibition (substrate: [3H]cGMP + cGMP). Type of data set: tissue-based. The note with it: platelet; Not Active = under 50% inhibition at 10 µM.
The target of data set [6] is Voltage-gated inwardly rectifying potassium channel KCNH2 (Homo sapiens, UniProt Q12809). The conditions noted are these: hek293. Further: in other assays of this panel Not Active means under 50% inhibition at 10 µM.
Chain of Voltage-gated inwardly rectifying potassium channel KCNH2 (Q12809 whole entry): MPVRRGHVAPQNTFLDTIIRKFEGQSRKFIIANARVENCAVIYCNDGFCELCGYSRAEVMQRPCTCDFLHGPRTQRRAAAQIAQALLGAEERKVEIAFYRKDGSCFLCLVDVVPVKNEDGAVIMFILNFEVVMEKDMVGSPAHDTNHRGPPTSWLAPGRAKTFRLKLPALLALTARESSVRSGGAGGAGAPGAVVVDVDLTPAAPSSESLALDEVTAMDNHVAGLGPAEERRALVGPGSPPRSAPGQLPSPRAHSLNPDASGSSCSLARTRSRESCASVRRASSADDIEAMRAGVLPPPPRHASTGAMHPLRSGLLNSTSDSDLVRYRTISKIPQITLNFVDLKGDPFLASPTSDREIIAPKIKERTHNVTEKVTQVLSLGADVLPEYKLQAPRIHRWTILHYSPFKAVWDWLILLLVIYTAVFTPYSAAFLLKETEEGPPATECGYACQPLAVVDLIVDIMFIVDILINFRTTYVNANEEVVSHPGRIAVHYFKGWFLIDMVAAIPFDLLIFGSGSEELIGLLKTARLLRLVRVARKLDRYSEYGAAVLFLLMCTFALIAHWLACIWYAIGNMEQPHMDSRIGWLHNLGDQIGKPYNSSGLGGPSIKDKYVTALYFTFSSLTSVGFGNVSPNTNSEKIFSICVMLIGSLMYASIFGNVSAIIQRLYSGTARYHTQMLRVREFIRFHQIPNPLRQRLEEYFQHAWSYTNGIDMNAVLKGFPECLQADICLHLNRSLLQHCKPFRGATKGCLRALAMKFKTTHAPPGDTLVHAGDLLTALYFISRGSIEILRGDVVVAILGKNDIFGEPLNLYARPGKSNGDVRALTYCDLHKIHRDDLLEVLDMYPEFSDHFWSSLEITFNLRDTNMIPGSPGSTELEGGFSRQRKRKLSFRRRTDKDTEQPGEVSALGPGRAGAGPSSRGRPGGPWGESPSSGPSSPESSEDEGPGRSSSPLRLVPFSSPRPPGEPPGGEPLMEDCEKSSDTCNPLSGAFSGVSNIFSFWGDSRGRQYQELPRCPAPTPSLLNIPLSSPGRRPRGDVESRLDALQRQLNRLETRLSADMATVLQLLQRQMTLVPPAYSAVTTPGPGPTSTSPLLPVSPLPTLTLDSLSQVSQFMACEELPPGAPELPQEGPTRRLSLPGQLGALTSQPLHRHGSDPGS

Molecules are shown by their SMILES.

One may read the IC50 as the point on the concentration scale where inhibition reaches its midpoint. The term Ki denotes the equilibrium dissociation constant of an inhibitor or competing ligand from its target. With `Oc1ccccc1O` [CATECHOL], the IC50 result in data set [1] (cho-k1) is “Not Active”; in data set [2] (cho-k1), “Not Active”; against Endothelin-1 receptor, “Not Active”; in data set [3] (read-out: IC50) it was 868 nM; in data set [4], “Not Active”; in data set [5] it was “Not Active”. In addition, the IC50 entry in data set [6] was “Not Active”. Also, the Ki result in data set [6] is “Not Active”.
In the case of `CO[C@@]1(NC(=O)CSCC#N)C(=O)N2C(C(=O)O)=C(CSc3nnnn3C)CS[C@@H]21` [CEFMETAZOLE], the IC50 entry (in data set [1] (cho-k1); in data set [2] (cho-k1); against Endothelin-1 receptor; in data set [3] (reticulocytes); in data set [4]; in data set [5]) was “Not Active” in each case. The IC50 result in data set [6] is “Not Active”. Besides, the Ki result in data set [6] is “Not Active”.
Take `CN(C(=O)CCCOc1ccc2[nH]c(=O)ccc2c1)C1CCCCC1` [CILOSTAMIDE]: the IC50 result (in data set [1] (cho-k1); in data set [2] (cho-k1); on Endothelin-1 receptor; in data set [3] (reticulocytes); in data set [4]; in data set [5]) was “Not Active” throughout. Besides, the IC50 result in data set [6] is listed as “Not Active”. In addition, the Ki result in data set [6] was “Not Active”.
As for `CC(C)(Oc1ccc(C2CC2(Cl)Cl)cc1)C(=O)O` (centres undefined) [CIPROFIBRATE], the IC50 entry (in data set [1] (cho-k1); in data set [2] (cho-k1); on Endothelin-1 receptor; in data set [3] (reticulocytes); in data set [4]; in data set [5]) was “Not Active” each time. In addition, the concentration for half-maximal inhibition (IC50) result in data set [6] was “Not Active”. In addition, the Ki entry in data set [6] was “Not Active”.
On to `Nc1nc(Cl)nc2c1ncn2[C@H]1C[C@H](O)[C@@H](CO)O1` [CLADRIBINE], for which the IC50 result (in data set [1] (cho-k1); in data set [2] (cho-k1); at Endothelin-1 receptor; in data set [3] (reticulocytes); in data set [4]; in data set [5]) was “Not Active” throughout. In addition, the IC50 result in data set [6] is on record as “Not Active”. Further, the Ki entry in data set [6] is “Not Active”.
On to `CC[C@H]1OC(=O)[C@H](C)[C@@H](O[C@H]2C[C@@](C)(OC)[C@@H](O)[C@H](C)O2)[C@H](C)[C@@H](O[C@@H]2O[C@H](C)C[C@H](N(C)C)[C@H]2O)[C@](C)(OC)C[C@@H](C)C(=O)[C@H](C)[C@@H](O)[C@]1(C)O` [CLARITHROMYCIN], for which the IC50 result (in data set [1] (cho-k1); in data set [2] (cho-k1); at Endothelin-1 receptor; in data set [3] (reticulocytes); in data set [4]; in data set [5]) was “Not Active” in each case. Besides, the IC50 entry in data set [6] is given as “Not Active”. In data set [6], the inhibitory constant (Ki) result is “Not Active”.
On to `O=C(O)c1cc(=O)c2c(OCC(O)COc3cccc4oc(C(=O)O)cc(=O)c34)cccc2o1` [CROMOLYN], for which the IC50 entry (in data set [1] (cho-k1); in data set [2] (cho-k1); on Endothelin-1 receptor; in data set [3] (reticulocytes); in data set [4]; in data set [5]) was “Not Active” each time. The IC50 result in data set [6] was “Not Active”. Besides, the Ki entry in data set [6] is reported as “Not Active”.
As to `O=P1(N(CCCl)CCCl)NCCCO1` (centres undefined) [CYCLOPHOSPHAMIDE ANHYDROUS], the IC50 result (in data set [1] (cho-k1); in data set [2] (cho-k1); against Endothelin-1 receptor; in data set [3] (reticulocytes); in data set [4]; in data set [5]) was “Not Active” throughout. Further, the IC50 result in data set [6] is on record as “Not Active”. The Ki result in data set [6] is on record as “Not Active”.
With `CC(=O)O[C@]1(C(C)=O)CC[C@H]2[C@@H]3C=C(Cl)C4=CC(=O)[C@@H]5C[C@@H]5[C@]4(C)[C@H]3CC[C@@]21C` [CYPROTERONE ACETATE], the IC50 result (in data set [1] (cho-k1); in data set [2] (cho-k1); against Endothelin-1 receptor; in data set [3] (reticulocytes); in data set [4]; in data set [5]) was “Not Active” each time. Further, the IC50 entry in data set [6] is reported as “Not Active”. The Ki entry in data set [6] was “Not Active”.
Take `Nc1nc(N)nc(NC2CC2)n1` [CYROMAZINE]: the IC50 entry (in data set [1] (cho-k1); in data set [2] (cho-k1); on Endothelin-1 receptor; in data set [3] (reticulocytes); in data set [4]; in data set [5]) was “Not Active” throughout. Moreover, in data set [6], the IC50 entry is “Not Active”. Moreover, the Ki result in data set [6] is given as “Not Active”.
Regarding `C#C[C@]1(O)CC[C@H]2[C@@H]3CCC4=Cc5oncc5C[C@]4(C)[C@H]3CC[C@@]21C` [DANAZOL], the IC50 entry in data set [1] (cho-k1) is “Not Active”; in data set [2] (read-out: IC50) it was 6840 nM; against Endothelin-1 receptor, “Not Active”; in data set [3] (reticulocytes) it was “Not Active”; in data set [4], “Not Active”; in data set [5] it was “Not Active”. Moreover, the IC50 entry in data set [6] was “Not Active”. For the same molecule, the values for the Ki in data set [2] and in data set [6] were 5440 nM and “Not Active”, respectively.
For `CCN[C@@H](C)Cc1cccc(C(F)(F)F)c1` [DEXFENFLURAMINE], the IC50 result (in data set [1] (cho-k1); in data set [2] (cho-k1); against Endothelin-1 receptor; in data set [3] (reticulocytes); in data set [4]; in data set [5]) was “Not Active” each time. Moreover, the IC50 result in data set [6] is listed as “Not Active”. Also, in data set [6], the Ki result is reported as “Not Active”.
For `C[C@H](C(=O)O)c1cccc(C(=O)c2ccccc2)c1` [DEXKETOPROFEN], the IC50 result (in data set [1] (cho-k1); in data set [2] (cho-k1); against Endothelin-1 receptor; in data set [3] (reticulocytes); in data set [4]; in data set [5]) was “Not Active” in each case. In addition, the IC50 result in data set [6] is “Not Active”. Moreover, the Ki result in data set [6] is recorded as “Not Active”.
Regarding `CN1C[C@H](C(=O)N[C@]2(C)O[C@@]3(O)[C@@H]4CCCN4C(=O)[C@H](Cc4ccccc4)N3C2=O)C[C@@H]2c3cccc4[nH]cc(c34)C[C@H]21` [DIHYDROERGOTAMINE], the IC50 in data set [1] (read-out: IC50) is 90 nM; in data set [2] (cho-k1), “Not Active”; against Endothelin-1 receptor, “Not Active”; in data set [3] (reticulocytes) it was “Not Active”; in data set [4], “Not Active”; in data set [5] it was “Not Active”. In addition, the IC50 entry in data set [6] is given as “Not Active”. In addition, the figures for the Ki in data set [1] (read-out: Ki) and in data set [6] were 47 nM and “Not Active”, respectively.
Consider `Cc1c(N(C)CS(=O)(=O)[O-])c(=O)n(-c2ccccc2)n1C.[Na+]` [DIPYRONE SODIUM], for which the IC50 entry (in data set [1] (cho-k1); in data set [2] (cho-k1); against Endothelin-1 receptor; in data set [3] (reticulocytes); in data set [4]; in data set [5]) was “Not Active” throughout. Besides, the IC50 result in data set [6] was “Not Active”. Besides, in data set [6], the Ki result is recorded as “Not Active”.
As for `CC(CCc1ccc(O)cc1)NCCc1ccc(O)c(O)c1` (centres undefined) [DOBUTAMINE], the IC50 entry is “Not Active” in data set [1] (cho-k1); 155 nM in data set [2] (read-out: IC50); “Not Active” on Endothelin-1 receptor; 599 nM in data set [3] (read-out: IC50); “Not Active” in data set [4]; “Not Active” in data set [5]. The IC50 result in data set [6] was “Not Active”. Besides, the Ki in data set [2] was 123 nM; in data set [6], “Not Active”.
In the case of `CCn1cc(C(=O)O)c(=O)c2cc(F)c(N3CCNCC3)nc21` [ENOXACIN], the half-maximal inhibitory concentration (IC50) entry (in data set [1] (cho-k1); in data set [2] (cho-k1); on Endothelin-1 receptor; in data set [3] (reticulocytes); in data set [4]; in data set [5]) was “Not Active” in each case. In data set [6], the IC50 entry was “Not Active”. The Ki result in data set [6] is recorded as “Not Active”.
